System: mice embryos
Assay: in vitro embryo development in Quinn's Advantage cleavage media
Format: cell-based
Method: CBA male mice were bred with BL C57 female mice. The mice were kept on a 12 hours photoperiod schedule with unlimited water and food supply. About 6 to 8 weeks after receiving offspring, each female mouse was injected IP with 5IU of pregnant mare serum gonadotropin (PMSG).
After 48 hours each female mouse was injected IP with 5IU human chorionic gonadotropin (hCG). Male mice proven to be fertile were then put together with the superovulated females. The next morning the female mice were examined for the presence of copulatory plugs. Females that had copulatory plugs were euthanized after 24 hours (approximately 36 hours post-coitus) and embryos at 2 cell stage were retrieved from the oviducts as following: the oviducts were dissected in Quinn's Advantage cleavage media (SAGE, Origio, Denmark) and the embryos were transferred to 20 μL drops with Quinn's Advantage cleavage media (SAGE, Origio, Denmark) overlaid with mineral oil and cultured at 37.0° C. under 5% CO2 and atmospheric oxygen. The collected embryos continued to grow, i.e. in-vitro culture (IVC), until blastocyst/hatching stage. To test the effect of amorphous calcium carbonate, the Quinn's Advantage cleavage media (“cleavage media” hereinafter) was supplemented with different additives, i.e. amorphous calcium carbonate stabilized by polyphosphate (ACC-PP), crystalline calcium carbonate (CCC), polyphosphate (PP), phosphoserine (PS) or sodium carbonate ([…]). All supplements were added as a freshly prepared suspension; the preparation of the ACC supplements were performed under aseptic conditions. Untreated cleavage media (without addition of any additive) was used as a control (identified as Cont Q). The embryos were evaluated every day by microscope observation for a detection of the following stages: 2 cells, compactions stage, blastocysts formation and hatching stage. The fraction (in percent) of the embryos reached each stage was calculated (the number of 2 cells embryos was set as 100%).

[1] = Example 9 Test A, 1.7 mM in cleavage media
[2] = Example 9 Test B, 1.7 mM CaCl2 or ACC-PP in cleavage media
[3] = Example 10, 1.7 mM CaCl2 or ACC-PP in cleavage media
[4] = Example 11, 1.7 mM in cleavage media
[5] = Example 12, mouse 1, embryos grown separately, 1.7 mM in cleavage media
[6] = Example 12, mouse 2, embryos grown separately, 1.7 mM in cleavage media
[7] = Example 12, mouse 3, embryos grown separately, 1.7 mM in cleavage media
[8] = Example 12, mouse 4, embryos grown separately, 1.7 mM in cleavage media
[9] = Example 16, pooled embryos, 1.7 mM in cleavage media

Compound: [Ca+2].[Cl-].[Cl-] [CaCl2, calcium chloride]
- Blast/d3: number of embryos [1]: 16
- Blast/d3: portion of the initial number of embryos [1]: 64%
- Comp/d2: portion of the initial number of embryos [1]: 64%
- comp/d2: number of embryos [1]: 16
- Blast/d3: number of embryos [2]: 20
- Blast/d3: portion of the initial number of embryos [2]: 74%
- Comp/d2: portion of the initial number of embryos [2]: 70%
- Hatch/d4: number of embryos [2]: 11
- Hatch/d4: portion of the initial number of embryos [2]: 40.7%
- comp/d2: number of embryos [2]: 20
- Blast/d3: number of embryos [3]: 8
- Blast/d3: portion of the initial number of embryos [3]: 80%
- Comp/d2: portion of the initial number of embryos [3]: 30%
- Hatch/d4: number of embryos [3]: 3
- Hatch/d4: portion of the initial number of embryos [3]: 30%
- comp/d2: number of embryos [3]: 3
- Blast/d3: number of embryos [4]: 24
- Blast/d3: portion of the initial number of embryos [4]: 80%
- Comp/d2: portion of the initial number of embryos [4]: 53.3%
- Hatch/d4: number of embryos [4]: 13
- Hatch/d4: portion of the initial number of embryos [4]: 43.3%
- comp/d2: number of embryos [4]: 16
- 2Cell/d1: number of embryos [5]: 3
- 8Cell/d2: number of embryos [5]: 2
- Blast/d3: number of embryos [5]: 1
- Blast/d3: portion of the initial number of embryos [5]: 8.3%
- Hatch/d4: number of embryos [5]: 0 (0)
- Hatch/d4: portion of the initial number of embryos [5]: 0 (0) %
- comp/d2: number of embryos [5]: 1
- irreg/d1: number of embryos [5]: 9
- 2Cell/d1: number of embryos [6]: 3
- 8Cell/d2: number of embryos [6]: 0
- Blast/d3: number of embryos [6]: 2
- Blast/d3: portion of the initial number of embryos [6]: 22.2%
- Hatch/d4: number of embryos [6]: 0 (0)
- Hatch/d4: portion of the initial number of embryos [6]: 0 (0) %
- comp/d2: number of embryos [6]: 3
- irreg/d1: number of embryos [6]: 6
- 2Cell/d1: number of embryos [7]: 7
- 8Cell/d2: number of embryos [7]: 0
- Blast/d3: number of embryos [7]: 5
- Blast/d3: portion of the initial number of embryos [7]: 50%
- Hatch/d4: number of embryos [7]: 3
- Hatch/d4: portion of the initial number of embryos [7]: 30%
- comp/d2: number of embryos [7]: 6
- irreg/d1: number of embryos [7]: 3
- 2Cell/d1: number of embryos [8]: 14
- 8Cell/d2: number of embryos [8]: 4
- Blast/d3: number of embryos [8]: 12
- Blast/d3: portion of the initial number of embryos [8]: 66.7%
- Hatch/d4: number of embryos [8]: 7
- Hatch/d4: portion of the initial number of embryos [8]: 41.2%
- comp/d2: number of embryos [8]: 10
- irreg/d1: number of embryos [8]: 4
- effect on embryonic development (percentages of blastocysts and hatched blastocysts) (Example 16, 1.7 mM in cleavage media): negative effect
- 8 cell/d2: number of embryos [9]: 6
- Blast/d3: number of embryos [9]: 10
- Blast/d3: portion of the initial number of embryos [9]: 90.90%
- Hatch/d4: number of embryos [9]: 4
- Hatch/d4: portion of the initial number of embryos [9]: 36.36%
- comp/d2: number of embryos [9]: 5

Reference: US12629390B2, “Stabilized amorphous calcium carbonate for treatment of neurological, muscular and infertility diseases or conditions” (AMORPHICAL LTD., priority 2016, dated 2026)
